Test [1] relates to immortalized megakaryocyte cell line MKCL #12-23 cre2. Nature of the test: Platelet production by immortalized megakaryocyte cell line, FACS of supernatant (anti-CD41a, anti-CD42b). Type of test: cell-based, human. To be noted: 10 μM, 3.3 μM, 1.1 μM and 0.4 μM compound, day 7, 6-well dish. How it is done: Continuing, the effect of promoting platelet production was confirmed for 28 compounds from among the secondary candidate compounds excluding duplicate compounds and compounds that were unable to be used commercially. The above-mentioned immortalized megakaryocyte cell line was cultured in a 6-well dish in differentiation medium containing each of the compounds at concentrations of 10 μM, 3.3 μM, 1.1 μM and 0.4 μM, 10 μM Y-27632, 50 ng/ml of TPO and 50 ng/ml of SCF, differentiation medium containing 0.75 μM SR1, 10 μM Y-27632, 50 ng/ml of TPO and 50 ng/ml of SCF (positive control), or differentiation medium containing 0.1% DMSO, 10 μM Y-27632, 50 ng/ml of TPO and 50 ng/ml of SCF (negative control), followed by suspending the cells and harvesting the supernatant on day 7 of culturing and analyzing by FACS after staining with anti-CD41a antibody and anti-CD42b antibody. The relative number of platelets was calculated by correcting the number of platelets in the case of using each candidate compound with the number of platelets of the positive control (assigned a value of 100%) and the number of platelets of the negative control (assigned a value of 0%) (FIG. 9).

Test [2] relates to TUBB1 expression (VENUS reporter) in immortalized megakaryocyte cell line MKCL #12-23 cre2. Kind of test: Secondary screening: VENUS fluorescence intensity in reporter immortalized megakaryocyte cell line at four concentrations. Type of test: cell-based, human. Particulars: 10 μM, 3.3 μM, 1.1 μM and 0.4 μM compound, day 7. How it is done: Secondary screening consisted of seeding the immortalized megakaryocyte cell line obtained according to the method described above into a 96-well dish and culturing after adding 10 μM Y-27632, 50 ng/ml of TPO, 50 ng/ml of SCF and the primary candidate compounds at concentrations of 10 μM, 3.3 μM, 1.1 μM and 0.4 μM each. The cells were also cultured in differentiation medium containing 0.75 μM SR1, 10 μM Y-27632, 50 ng/ml of TPO and 50 ng/ml of SCF (positive control) or differentiation medium containing 0.1% DMSO, 10 μM Y-27632, 50 ng/ml of TPO and 50 ng/ml of SCF (negative control). On day 7 of culturing, the fluorescence intensity of VENUS in each compound group was measured with Array Scan VTI (Thermo Scientific), and the value of fluorescence intensity of each compound was corrected according to the fluorescence intensity of the positive control (assigned a value of 100%) and the fluorescence intensity of the negative control (assigned a value of 0%). […] The secondary candidate compounds consisted of 35 types of compounds, and included, for example, TCS-359 (CAS NO. 301305-73-7, Santa Cruz Biotechnology, Inc.) and C59 (CAS NO. 1243243-89-1).

The subject of test [3] is megakaryocyte cells (non-immortalized) derived from iPS cells (TkDA3-4). Kind of test: Platelet production of iPS cell (TkDA3-4)-derived megakaryocyte cells in absence of feeder cells, FACS. Format: cell-based. To be noted: 10 days, 1 μM C59, 3.3 μM TCS-359, 0.75 μM SR1. On the procedure:
After culturing iPS cells (TkDA3-4), the colonies were detached with a cell scraper and cultured in differentiation medium on 10T1/2 feeder cells following the addition of […] of VEGF in accordance with Takayama, N., et al., Blood, 111, pp. 5298-5306, 2008. Fourteen days later, the cells were recovered using a cell scraper and cultured for 10 days in the absence of feeder cells following the addition of 25 U/mL of heparin, 10 μM Y-27632, 100 ng/ml of TPO and 50 ng/ml of SCF, and further adding 0.1% DMSO, 0.75 μM SR1, 1 μM C59 (Albiochem) or 3.3 μM TCS-359 (Santa Cruz Biotechnology, Inc.). Culturing was also carried out in the same manner using feeder cells. The resulting cells were suspended and the supernatant was harvested followed by analyzing by FACS after staining with anti-CD41a antibody and anti-CD42b antibody (FIG. 10).

The subject of test [4] is immortalized megakaryocyte cell line MKCL #12-23 cre2. Kind of test: Time course of VENUS expression and platelet number with or without SR1 on 10T1/2R feeder cells, FACS. Type of test: cell-based, human. Particulars: 0.75 μM SR1 with 10 μM Y-27632, TPO, SCF; day 0 to day 7. On the procedure: Continuing, the immortalized megakaryocyte cell line was cultured on 10T1/2R feeder cells in differentiation medium containing 50 ng/ml of TPO and 50 ng/ml of SCF or differentiation medium containing 0.75 μM SR1, 10 μM Y-27632, 50 ng/ml of TPO and 50 ng/ml of SCF, followed by suspending the cells and harvesting the supernatant on day 0, day 1, day 3, day 4, day 6 and day 7 of culturing and analyzing the cells by FACS after staining with anti-CD41a antibody and anti-CD42b antibody.

Turning to `Cc1cc(-c2ccc(CC(=O)Nc3ccc(-c4cccnc4)cc3)cc2)ccn1` [C59], the “relative number of platelets (positive control 0.75 μM SR1 = 100%, negative control 0.1% DMSO = 0%)” value in test [1] is recorded as “potent platelet inducer”. In test [2], the “concentration dependency of VENUS fluorescence intensity” value is on record as “concentration dependency was observed”. In addition, the “ability to produce platelets compared with SR1” value in test [3] was “equal to or greater than that of SR1”.
On to `CC(C)n1cnc2c(NCCc3ccc(O)cc3)nc(-c3csc4ccccc34)nc21` [SR1, StemRegenin 1], for which, in test [4], the “expression level of VENUS” value is recorded as “confirmed to rise” and the “number of platelets produced” value is on record as “confirmed to increase”.
With `COc1ccc(C(=O)Nc2sc3c(c2C(N)=O)CCCC3)cc1OC` [TCS-359], the “concentration dependency of VENUS fluorescence intensity” value in test [2] was “concentration dependency was observed”. The “ability to produce platelets compared with SR1” value in test [3] is recorded as “equal to or greater than that of SR1”.

Source of the values: patent US11977071B2, “Method for screening for platelet production promoters” (Kyoto University, priority 2016, dated 2024).
